Data: patent US4868195A, “Novel enolamides, pharmaceutical compositions and methods of use thereof for activity as modulators of the arachidonic acid cascade” (Warner-Lambert Company, priority 1988, dated 1989)
Several values for one entry are separate records, joined by “and”; a condition that tells them apart may be missing. Equal entries are not always repeated.

Molecular target: T1, 5-lipoxygenase (Homo sapiens, UniProt P09917)
T1 construct: endogenous in cells; host or cells: intact leukocytes isolated from human blood
T1 sequence (P09917 1-674): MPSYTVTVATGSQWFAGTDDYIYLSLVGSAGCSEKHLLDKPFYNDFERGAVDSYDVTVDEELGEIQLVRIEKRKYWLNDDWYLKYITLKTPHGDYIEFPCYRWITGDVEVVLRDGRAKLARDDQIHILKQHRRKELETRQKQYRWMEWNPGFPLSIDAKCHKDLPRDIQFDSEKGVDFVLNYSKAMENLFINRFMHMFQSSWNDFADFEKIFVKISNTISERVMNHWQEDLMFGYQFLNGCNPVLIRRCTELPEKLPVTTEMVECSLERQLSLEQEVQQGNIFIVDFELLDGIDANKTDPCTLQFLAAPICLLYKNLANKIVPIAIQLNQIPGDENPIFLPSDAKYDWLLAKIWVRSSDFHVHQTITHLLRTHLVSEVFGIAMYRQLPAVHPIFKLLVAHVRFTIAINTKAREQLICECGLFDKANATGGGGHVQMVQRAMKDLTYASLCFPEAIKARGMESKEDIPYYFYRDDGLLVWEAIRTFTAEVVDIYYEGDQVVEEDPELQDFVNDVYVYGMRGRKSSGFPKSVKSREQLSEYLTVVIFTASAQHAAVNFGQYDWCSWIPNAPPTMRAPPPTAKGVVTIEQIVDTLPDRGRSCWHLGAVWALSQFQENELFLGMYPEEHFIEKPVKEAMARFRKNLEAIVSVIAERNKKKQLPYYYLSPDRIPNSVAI
Test: 5-Lipoxygenase Assay Using Isolated Human Leukocytes (5LOA2)
Type: cell-based
Conditions: 5-HETE formation, HPLC, read-out: Concentration (M) for 50.0 % Inhibition, IC (5LOA2)
Experimental: 5-Lipoxygenase Assay Using Isolated Human Leukocytes (5LOA2)
The formation of 5-HETE in human leukocytes is considered a measure of 5-lipoxygenase activity. The protocol is described in the following.
Fresh heparinized or EDTA treated human blood is mixed with 6% dextran-3% dextrose in isotonic saline in the ratio 0.25 ml dextran solution per 1.0 ml blood. After mixing the blood is allowed to sit at room temperature for about 90 minutes while the RBC's settle. During this period, the plasma is removed with a plastic pepette to nalgens tubes.
The plasma is centrifuged at 800 rpm ([…]) on the Beckman Td-b refrigerated centrifuge to remove the platelets (which remain in the supernatant). The pellet, consisting of leukocytes and erythrocytes, is treated with 10 ml 0.87% ammonium chloride at room temperature for four minutes, lysing the red cells. At the end of four minutes the cells are diluted with a 2x volume of phosphate buffered saline, pH 7.4, and centrifuged for ten minutes. The cells are washed three times with the phosphate buffered saline. […]
A portion of the ethanol solution is injected into the HPLC system for 5-HETE quantitation.
The HPLC system consists of Hewlett-Packard 1040A UV spectrophotometry system with an HP85 computer. […] Peaks are measured with a Hewlett Packard 3390A integrator. […] The flow is monitored at 235 nm for 5-HETE quantitation. […]

Structure (SMILES)	IC50
O=C(Nc1ccccc1Cc1ccc(Cl)c(Cl)c1)C1=C(O)c2ccccc2S(=O)(=O)C1 [Example 81, 2H-1-Benzothiopyran-3-carboxamide, N-[2-[(3,4-dichlorophenyl)methyl]phenyl]-4-hydroxy, 1,1-dioxide]	8.4e-06 M
O=C(Nc1ccccc1CCc1ccc(Cl)c(Cl)c1)C1=C(O)c2ccccc2S(=O)(=O)C1 [Example 8, N-[2-[2-(3,4-Dichlorophenyl)ethyl]phenyl]-4-hydroxy-2H-1-benzothiopyran-3-carboxamide, 1,1-dioxide]	5e-06 M and 4.6e-06 M
